Read-outs that look alike come from different tables or passages of the source.
Key:
human mTOR enzyme = human mTOR enzyme (Homo sapiens, UniProt P42345); experiment: HTRF mTOR enzyme (kinase) assay; assay type: biochemical; conditions: 5 μM ATP, 0.2 μM GST-S6K, read-out: hMTOR IC50
[1] = test system: mTORC2 activity: phosphorylated AKT Ser473 (pAKT S473) in PC3 cells; experiment: mTOR target engagement assay, immunofluorescent cell-based, mTORC2 readout; conditions: 90 min treatment
Method in brief: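 Read-out is immunofluorescence intensity, normalized to DMSO-only wells and fitted to a sigmoidal Hill equation for IC50. The mTORC1 arm probes phospho-4E-BP1 Thr37/46 and the mTORC2 arm phospho-AKT Ser473.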

[2] = test system: mTORC1 activity: phosphorylated 4E-BP1 Thr37/46 (p4E-BP1 Thr37/46) in PC3 cells; experiment: mTOR target engagement assay, immunofluorescent cell-based, mTORC1 readout; conditions: 90 min treatment, read-out: P4EBP1 IC50
Protocol: The target engagement of mTOR kinase inhibitors was evaluated using an immunofluorescent cell-based assay. In this assay, inhibition of mTORC1 activity was measured by the reduction in the level of phosphorylated 4E-BP1Thr37/46 (p4E-BP1 Thr37/46), and inhibition of mTORC2 activity was measured by the reduction of phosphorylated AKTSer473 (pAKT S473).
PC3 cells (prostate tumor cell-line that contains a mutation in the tumor suppressor PTEN, that promotes the phosphorylation and activation of AKT and 4E-BP1) were used in the immunofluorescence assay. PC3 cells were seeded on 384 well plates (black clear bottom, Matrix #4332) overnight. PC3 cells were then treated with 40 μl of the serially diluted test compounds (in 5% fetal bovine serum, F12 medium containing 0.25% DMSO) for ninety minutes at 37° C. The test compound solution was removed, and the plates were washed gently two times with 25 μl phosphate buffered saline (PBS). The cells were fixed by adding 25 μl of Prefer reagent (from Anatech LTD, Cat#414, a glyoxal fixative for fixing proteins within a cell) for sixty minutes followed by three washes with PBS. 5% Goat serum in PBS/0.3% Triton was used to block non-specific binding (60 minutes).
The primary antibodies targeting pAKT S473 and p4E-BP1 Thr37/46 were diluted into PBS/0.3% Triton and incubated with the cells overnight at 4° C. The antibodies targeting pAKTS473 (Cat#4085, Cell signaling) and p4E-BP1 Thr37/46 (Cat#2855, Cell signaling) were used at a 1:100 dilution. Plates were washed three times with PBS/0.1% Tween 20 before adding the secondary antibody at a 1:200 dilution. (goat anti-rabbit containing a fluorescent label, Alexa Fluor 488, Cat#A11008, Invitrogen) in PBS/0.3% Triton for 60 minutes.
Finally, the plates were washed three times with PBS/0.1% Tween 20 and the fluorescent intensity was read using an Analyst HT from Molecular Devices. The fluorescent intensity values from the serially diluted compound treatment group were analyzed using the Xlfit 4 program ([…]) (Formula 205: Y=Bottom+(Top-Bottom)/(1+(IC50/X)^Hillslope) to generate the IC50 value. Where Top is the maximum signal without Compound (+DMSO only) and Bottom represents maximum inhibition. Y is the fluorescence at some compound concentration. The control used to determine the fluorescent intensities for 100% pAKT S473 or 100% phosphorylated p4E-BP1 Thr37/46 were measured from untreated wells that contained only DMSO, instead of test compound.

[3] = Homo sapiens, PC-3, 1.5 h, rated class

Sequence of human mTOR enzyme (P42345 1360-2549 limits assumed): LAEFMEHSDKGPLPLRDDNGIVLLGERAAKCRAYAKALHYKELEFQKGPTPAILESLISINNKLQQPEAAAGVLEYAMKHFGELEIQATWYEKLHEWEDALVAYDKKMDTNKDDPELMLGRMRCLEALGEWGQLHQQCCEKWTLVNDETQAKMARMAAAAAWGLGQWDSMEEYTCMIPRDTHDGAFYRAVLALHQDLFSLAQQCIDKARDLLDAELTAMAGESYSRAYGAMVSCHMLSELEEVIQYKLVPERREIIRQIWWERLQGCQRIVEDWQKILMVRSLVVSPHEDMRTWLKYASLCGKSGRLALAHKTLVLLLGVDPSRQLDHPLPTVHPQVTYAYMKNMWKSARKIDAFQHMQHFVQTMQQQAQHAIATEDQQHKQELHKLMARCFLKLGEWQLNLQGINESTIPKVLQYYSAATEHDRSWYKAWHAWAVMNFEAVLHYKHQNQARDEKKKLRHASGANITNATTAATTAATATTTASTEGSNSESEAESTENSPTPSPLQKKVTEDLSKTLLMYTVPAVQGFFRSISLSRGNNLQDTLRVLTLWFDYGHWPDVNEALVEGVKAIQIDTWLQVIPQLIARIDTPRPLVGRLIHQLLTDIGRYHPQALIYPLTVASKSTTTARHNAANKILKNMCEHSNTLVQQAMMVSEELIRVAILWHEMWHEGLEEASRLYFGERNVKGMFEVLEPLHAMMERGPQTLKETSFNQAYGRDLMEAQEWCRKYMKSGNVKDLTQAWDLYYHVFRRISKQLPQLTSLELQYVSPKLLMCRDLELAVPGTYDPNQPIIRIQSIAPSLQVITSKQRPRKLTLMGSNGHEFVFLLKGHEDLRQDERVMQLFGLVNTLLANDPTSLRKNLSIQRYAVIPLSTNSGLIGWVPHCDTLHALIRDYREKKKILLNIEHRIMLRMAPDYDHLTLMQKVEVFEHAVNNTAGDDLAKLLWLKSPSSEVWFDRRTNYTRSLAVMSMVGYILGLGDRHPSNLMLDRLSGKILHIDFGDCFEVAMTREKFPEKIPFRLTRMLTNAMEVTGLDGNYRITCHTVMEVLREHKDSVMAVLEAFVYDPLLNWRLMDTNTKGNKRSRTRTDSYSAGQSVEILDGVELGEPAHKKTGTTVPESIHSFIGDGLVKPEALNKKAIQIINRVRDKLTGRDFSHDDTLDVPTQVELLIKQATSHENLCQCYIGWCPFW

IC50 (human mTOR enzyme; rated class)	IC50 [1, 3]	IC50 [2, 3]	IC50 (human mTOR enzyme; numeric value)	IC50 ([1]; numeric value)	IC50 ([2]; numeric value)	IC50 ([1]; rated class)	IC50 ([2]; rated class)	Structure (SMILES)
1 to 100 nM	100 to 1000 nM	100 to 1000 nM						CC(=O)c1c(C2CCC(O)(CO)CC2)nc2c(-c3ccc(-c4cscn4)nc3)cnn2c1N (single isomer, unassigned) [Compound 144, 1-(7-amino-5-(4-hydroxy-4-(hydroxymethyl)-cyclohexyl)-3-(6-(thiazol-4-yl)pyridin-3-yl)pyrazolo[1,5-a]pyrimidin-6-yl)ethanone]
			1.33 nM	275 nM	850 nM			C[C@]1(C(=O)O)CC[C@H](c2nc3c(-c4ccc(-c5ccccc5)nc4)cnn3c(N)c2Br)CC1 [Compound 1, (1R,4R)-4-(7-amino-6-bromo-3-(6-phenylpyridin-3-yl)pyrazolo[1,5-a]pyrimidin-5-yl)-1-methylcyclohexanecarboxylic acid]
1 to 100 nM	100 to 1000 nM	100 to 1000 nM						CC(=O)c1c(N)n2ncc(-c3ccc(-c4ccccc4)nc3)c2nc1[C@H]1CC[C@](C)(C(=O)O)CC1 [Compound 15, (1R,4R)-4-(6-acetyl-7-amino-3-(6-phenylpyridin-3-yl)pyrazolo[1,5-a]pyrimidin-5-yl)-1-methylcyclohexanecarboxylic acid]
1 to 100 nM	1 to 100 nM	100 to 1000 nM						COC[C@]1(C(=O)O)CC[C@H](c2nc3c(-c4ccc(-c5ccccc5)nc4)cnn3c(N)c2C(C)=O)CC1 [Compound 18, (1R,4R)-4-(6-acetyl-7-amino-3-(6-phenylpyridin-3-yl)pyrazolo[1,5-a]pyrimidin-5-yl)-1-(methoxymethyl)-cyclohexane-carboxylic acid]
1 to 100 nM	100 to 1000 nM	100 to 1000 nM						C[C@]1(C(=O)O)CC[C@H](c2nc3c(-c4ccc(-c5ccccc5)nc4)cnn3c(N)c2C#N)CC1 [Compound 25, (1R,4R)-4-(7-amino-6-cyano-3-(6-phenylpyridin-3-yl)pyrazolo[1,5-a]pyrimidin-5-yl)-1-methylcyclohexanecarboxylic acid]
1 to 100 nM						1 to 100 nM	100 to 1000 nM	C[C@]1(C(=O)O)CC[C@@H](c2nc3c(-c4ccc(-c5ccccc5)nc4)cnn3c(N)c2C#N)CC1 [Compound 26, (1S,4S)-4-(7-amino-6-cyano-3-(6-phenylpyridin-3-yl)pyrazolo[1,5-a]pyrimidin-5-yl)-1-methylcyclohexanecarboxylic acid]
1 to 100 nM	1 to 100 nM	100 to 1000 nM						CO[C@]1(C(=O)O)CC[C@H](c2nc3c(-c4ccc(-c5ccccc5)nc4)cnn3c(N)c2Br)CC1 [Compound 28, (1S,4S)-4-(7-amino-6-bromo-3-(6-phenylpyridin-3-yl)pyrazolo[1,5-a]pyrimidin-5-yl)-1-methoxycyclohexanecarboxylic acid]
1 to 100 nM	100 to 1000 nM	100 to 1000 nM						CO[C@]1(C(=O)O)CC[C@@H](c2nc3c(-c4ccc(-c5ccccc5)nc4)cnn3c(N)c2Br)CC1 [Compound 29, (1R,4R)-4-(7-amino-6-bromo-3-(6-phenylpyridin-3-yl)pyrazolo[1,5-a]pyrimidin-5-yl)-1-methoxycyclohexane-carboxylic acid]
1 to 100 nM	100 to 1000 nM	100 to 1000 nM						CO[C@]1(C(=O)O)CC[C@@H](c2nc3c(-c4cnn(-c5ccccc5)c4)cnn3c(N)c2Br)CC1 [Compound 30, (1R,4R)-4-(7-amino-6-bromo-3-(1-phenyl-1H-pyrazol-4-yl)pyrazolo[1,5-a]pyrimidin-5-yl)-1-methoxycyclohexane-carboxylic acid]
1 to 100 nM	1 to 100 nM	100 to 1000 nM						CO[C@]1(C(=O)O)CC[C@H](c2nc3c(-c4cnn(-c5ccccc5)c4)cnn3c(N)c2Br)CC1 [Compound 31, (1S,4S)-4-(7-amino-6-bromo-3-(1-phenyl-1H-pyrazol-4-yl)pyrazolo[1,5-a]pyrimidin-5-yl)-1-methoxycyclohexane-carboxylic acid]
1 to 100 nM	100 to 1000 nM	100 to 1000 nM						CO[C@]1(C(=O)O)CC[C@H](c2nc3c(-c4ccc(-c5ccccc5)nc4)cnn3c(N)c2C(C)=O)CC1 [Compound 34, (1S,4S)-4-(6-acetyl-7-amino-3-(6-phenylpyridin-3-yl)pyrazolo[1,5-a]pyrimidin-5-yl)-1-methoxycyclohexanecarboxylic acid]
1 to 100 nM	1 to 100 nM	100 to 1000 nM						CO[C@]1(C(=O)O)CC[C@@H](c2nc3c(-c4ccc(-c5ccccc5)nc4)cnn3c(N)c2C(C)=O)CC1 [Compound 35, (1R,4R)-4-(6-acetyl-7-amino-3-(6-phenylpyridin-3-yl)pyrazolo[1,5-a]pyrimidin-5-yl)-1-methoxycyclohexane-carboxylic acid]
1 to 100 nM	1 to 100 nM	100 to 1000 nM						CO[C@]1(C(=O)O)CC[C@@H](c2nc3c(-c4cnn(-c5ccccc5)c4)cnn3c(N)c2C(C)=O)CC1 [Compound 36, (1R,4R)-4-(6-acetyl-7-amino-3-(1-phenyl-1H-pyrazol-4-yl)pyrazolo[1,5-a]pyrimidin-5-yl)-1-methoxycyclohexane-carboxylic acid]
1 to 100 nM	1 to 100 nM	100 to 1000 nM						CO[C@]1(C(=O)O)CC[C@H](c2nc3c(-c4cnn(-c5ccccc5)c4)cnn3c(N)c2C(C)=O)CC1 [Compound 37, (1S,4S)-4-(6-acetyl-7-amino-3-(1-phenyl-1H-pyrazol-4-yl)pyrazolo[1,5-a]pyrimidin-5-yl)-1-methoxycyclohexane-carboxylic acid]
1 to 100 nM	1 to 100 nM	100 to 1000 nM						COCCO[C@]1(C(=O)O)CC[C@@H](c2nc3c(-c4cnn(-c5ccccc5)c4)cnn3c(N)c2S(C)(=O)=O)CC1 [Compound 40, (1R,4R)-4-(7-amino-6-(methylsulfonyl)-3-(1-phenyl-1H-pyrazol-4-yl)pyrazolo[1,5-a]pyrimidin-5-yl)-1-(2-methoxyethoxy)cyclohexanecarboxylic acid]
1 to 100 nM	5000 to 15000 nM	5000 to 15000 nM						COCCO[C@]1(C(=O)O)CC[C@H](c2nc3c(-c4cnn(-c5ccccc5)c4)cnn3c(N)c2S(C)(=O)=O)CC1 [Compound 41, (1S,4S)-4-(7-amino-6-(methylsulfonyl)-3-(1-phenyl-1H-pyrazol-4-yl)pyrazolo[1,5-a]pyrimidin-5-yl)-1-(2-methoxyethoxy)-cyclohexanecarboxylic acid]
1 to 100 nM	2000 to 5000 nM	5000 to 15000 nM						COCCO[C@]1(C(=O)O)CC[C@@H](c2nc3c(-c4ccc(-c5ccn(C)n5)nc4)cnn3c(N)c2S(C)(=O)=O)CC1 [Compound 42, (1R,4R)-4-(7-amino-3-(6-(1-methyl-1H-pyrazol-3-yl)pyridin-3-yl)-6-(methylsulfonyl)-pyrazolo[1,5-a]-pyrimidin-5-yl)-1-(2-methoxyethoxy)-cyclohexanecarboxylic acid]
1 to 100 nM	100 to 1000 nM	100 to 1000 nM						COCCO[C@]1(C(=O)O)CC[C@@H](c2nc3c(-c4cnn(-c5ccc(F)cc5)c4)cnn3c(N)c2S(C)(=O)=O)CC1 [Compound 43, (1R,4R)-4-(7-amino-3-(1-(4-fluorophenyl)-1H-pyrazol-4-yl)-6-(methylsulfonyl)-pyrazolo[1,5-a]-pyrimidin-5-yl)-1-(2-methoxyethoxy)-cyclohexanecarboxylic acid]
1 to 100 nM	100 to 1000 nM	100 to 1000 nM						COCCO[C@]1(C(=O)O)CC[C@@H](c2nc3c(-c4ccc(-c5ccccc5)nc4)cnn3c(N)c2S(C)(=O)=O)CC1 [Compound 44, (1R,4R)-4-(7-amino-6-(methylsulfonyl)-3-(6-phenylpyridin-3-yl)pyrazolo[1,5-a]pyrimidin-5-yl)-1-(2-methoxyethoxy) cyclohexanecarboxylic acid]

Source: US8883801B2, “Substituted pyrazolo[1,5-a]pyrimidines as mTOR inhibitors” (Merck Sharp & Dohme Corp., priority 2010, dated 2014)
